Assay results: patent US20220264878A1, “HERBICIDAL COMPOSITION CONTAINING R-TYPE PYRIDYLOXY CARBOXYLIC ACID DERIVATIVE AND USE THEREOF” (Qingdao Kingagroot Chemical Compound Co., Ltd., priority 2019, published 2022)

Columns and labels:
Assay type in all cases: in vivo
[1] = tested on: Echinochloa crusgalli var. zelayensis; assay: Soil sealing treatment, pot culture, fresh weight inhibition (Tables 49, 50)
Method: A method for investigating absolute number was employed, wherein whole seedlings of survival weeds were cut off with a blade along the soil surface, and the fresh weight of the weeds was weighed with an analytical balance. For dead weeds, the fresh weight thereof was zero.
Theoretical fresh weight inhibition rate of a combination of two active ingredients in each group was calculated by the Gowing method (E0=X+Y−X*Y/100), and then compared with an actually measured inhibition rate (E), thereby effect of the combination (hereafter referred to as combined effect) on weeds was evaluated: the value of E-E0, which was greater than 10%, corresponded to a synergistic effect, the value of E-E0, which was less than −10%, corresponded to an antagonistic effect, and the value of E-E0, which was from −10% to 10%, corresponded to an additional effect. […] Wherein, in the formula, X represented the fresh weight inhibition rate of the active ingredient A in a dosage of P, and Y represented the fresh weight inhibition rate of the active ingredient B in a dosage of Q.
Echinochloa crusgalli var zelayensis were collected in Huai'an of Jiangsu Province; Echinochloa caudate were collected in Pingluo of Ningxia Province; Echinochloa oryzoides were collected in Qiqiha'er of Heilongjiang Province.
The culture was carried out in a controllable sunlight greenhouse at 20 to 30° C., in natural light, and relative humidity of 57% to 72%. […] The test soil was placed quantitatively to ¾ of the pots and then watered from the bottom of the pots to completely wet the soil to saturation. The pretreated test weed seeds were uniformly sowed on the surface, then covered with 0.5-2 cm soil according to the seed size, and ready-for use 24 hours after sowing.
The technical materials were all dissolved in acetone, and diluted with an aqueous solution containing 0.1% emulsifier T-80. The dilution is performed as required.
A ratio of A to the active ingredient B and amounts thereof in each group depends on the characteristics and toxicity of the two agents, as well as the main application purpose of a corresponding formulation. Based on the pre-tests in this study, the dosage of A and the active ingredient B applied alone and in combination were shown in the tables. Water containing the solvent and emulsifier same with the above groups but free of the agents was used as a blank control.
3 pots with 30 weed seeds per pot were treated in one treatment with 4 replications per treatment.
The pots which were sowed and mulched were evenly placed on a platform with an area of 0.5 m^2, and a solution of agents was sprayed on soil surface thereof by the 3WP-2000-type walking spray tower at a dosage of […] and at a spray pressure of 0.3 MPa. After all the solution was sprayed, the valve was closed. After 30 seconds, the door of the spray tower was opened, and the nutritional bowl was taken out. Then the valve was opened, and the spray tube was cleaned by spraying 50 ml of water.
This section was same as the section 4) in the post-emergence treatment by performing foliage spray, and was not repeated herein.

Veronica didyma = assay: Post-emergence foliage spray, pot culture, fresh weight inhibition (Tables 151-206; 20 days); conditions: 20 days after treatment
Summary of the method: (§1)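 Field-collected weeds grown in pots in a greenhouse (20-30° C., natural light, 57-72% RH), 15 per pot, 3 pots × 4 replicates. Single foliar spray at 4-5 leaves (grasses) or 5-6 leaves (broadleaf) with acetone/0.1% Tween-80 dilutions at 450 kg/ha, 0.3 MPa. Above-ground fresh weight inhibition versus solvent blank at 20 days.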

Conyza Canadensis = assay: as above; conditions: 20 days after treatment
Summary of the method: as §1

C[C@@H](Oc1nc(F)c(Cl)c(N)c1Cl)C(=O)OCC1CCCO1 (stereo partly drawn) [Compound A2]
Control effect (%) of A applied alone in corresponding dose ([1]; A2 75 g a.i./ha): 21.4% | Control effect (%) of A applied alone in corresponding dose ([1]; A2 150 g a.i./ha): 45.2% | Control effect (%) of A applied alone in corresponding dose (Veronica didyma; A alone 75 g a.i./ha): 19.7% | Control effect (%) of A applied alone in corresponding dose (Veronica didyma; A alone 150 g a.i./ha): 36.6% | Control effect (%) of A applied alone in corresponding dose (Conyza Canadensis; A alone 75 g a.i./ha): 38.1% | Control effect (%) of A applied alone in corresponding dose (Conyza Canadensis; A alone 150 g a.i./ha): 54.4%
